Reference: patent US8883782B2, “Spiro-tetracyclic ring compounds as beta-secretase modulators and methods of use” (Amgen Inc., priority 2010, dated 2014)
Read-outs that look alike come from different tables or passages of the source.

Assays:
[1] = system: Aβ40 in conditioned medium of cells stably expressing Amyloid Precursor Protein (APP); test: In vitro BACE cell-based assay (Aβ40 in conditioned medium, sandwich ELISA); details: read-out: HEK cell assay
Summary of the method: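 Quantification relied on pAb40/6E10 sandwich ELISA with Europium fluorescence counts, and IC50 was fitted versus concentration.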

[2] = system: Abeta 40 in cerebrospinal fluid (CSF) and brain; test: In vivo inhibition of beta-secretase (Abeta 40 reduction in CSF and brain); details: rat, after 4 hrs; for inhibition in vivo at 10 mg/kg: Abeta 40, 10 mg/kg (10 mpk); for inhibition in vivo at 3 mg/kg: Abeta 40, 3 mpk
Source text: In Vivo Inhibition of Beta-Secretase
Several animal models, including mouse, rat, dog, and monkey, may be used to screen for inhibition of beta-secretase activity in vivo following administration of a test compound sample. Animals used in this invention can be wild type, transgenic, or gene knockout animals. […] A separate group of animals receive 2% hydroxypropyl methylcellulose, 1% Tween80 alone, containing no test compound, and serve as a vehicle-control group. At the end of the test period, animals are sacrificed and brain tissues, plasma or cerebrospinal fluid are collected. […] Homogenates are centrifuged at 355,000 g, 4° C. for 30 minutes. CSF or brain supernatants are then analyzed for the presence of A-beta peptide by specific sandwich ELISA assays based on ECL (Electrochemiluminescence) technology. For example, rat Abeta40 is measured using biotinylated-4G8 (Signet) as a capture antibody and Fab40 (an in-house antibody specific to the C-terminal of Abeta40) as a detection antibody.
Actual vehicles used: Oral: 2% HPMC, 1% Tween80, pH 2.2

[3] = biological target: Beta Secretase enzyme (BACE) (Homo sapiens, UniProt P56817); test: In vitro enzymatic BACE FRET (fluorescence resonance energy transfer) assay; type: biochemical; details: average IC50, enzyme assay; read-out: BACE 1 FRET assay
Summary of the method: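 Buffer 0.05 M acetate pH 4.2, 10% DMSO final, 100 uM genapol (sub-CMC); start with 50 nM FRET substrate; 1 h incubation; Tris stop; fluorescence read.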

[4] = Homo sapiens, HEK293, average IC50, HEK cells
[5] = Homo sapiens, HEK293, average IC50

Sequence of Beta Secretase enzyme (BACE) (P56817 46-501, species assumed): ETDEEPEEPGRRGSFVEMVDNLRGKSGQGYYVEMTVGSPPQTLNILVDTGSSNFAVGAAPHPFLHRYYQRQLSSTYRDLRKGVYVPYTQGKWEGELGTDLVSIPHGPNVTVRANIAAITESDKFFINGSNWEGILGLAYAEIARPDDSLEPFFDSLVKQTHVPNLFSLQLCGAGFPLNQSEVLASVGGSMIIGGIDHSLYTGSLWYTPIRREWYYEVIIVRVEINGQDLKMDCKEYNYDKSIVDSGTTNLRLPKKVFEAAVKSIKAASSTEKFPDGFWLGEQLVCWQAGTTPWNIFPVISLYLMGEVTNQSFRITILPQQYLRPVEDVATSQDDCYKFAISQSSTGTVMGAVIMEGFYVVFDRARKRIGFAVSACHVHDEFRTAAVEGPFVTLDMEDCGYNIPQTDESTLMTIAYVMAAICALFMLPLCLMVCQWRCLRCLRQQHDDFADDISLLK

Compound | IC50 [1, 5] [nM] | IC50 [3] [nM] | IC50 ([1]; average IC50) [nM] | also measured
CC(C)(C)C#Cc1cnc2c(c1)[C@]1(COC(N)=N1)c1cc(-c3cncnc3)c(F)cc1O2 [Example 339, (S)-3-(3,3-dimethylbut-1-yn-1-yl)-8-fluoro-7-(pyrimidin-5-yl)-5′H-spiro[chromeno[2,3-b]pyridine-5,4′-oxazol]-2′-amine] | – | – | 14.4 | inhibition in vivo at 10 mg/kg ([2]; CSF, read-out: CSF A-beta reduction % at 10 mg/kg): 56%; inhibition in vivo at 10 mg/kg ([2]; brain, read-out: Brain A-beta reduction % at 10 mg/kg): 29%
NC1=N[C@@]2(CO1)c1cc(-c3cccnc3F)ccc1Oc1c2cc(C2=CCCOC2)nc1F [Example 688, (5S)-3-(5,6-dihydro-2H-pyran-3-yl)-1-fluoro-7-(2-fluoro-3-pyridinyl)spiro[chromeno[2,3-c]pyridine-5,4′-[1,3]oxazol]-2′-amine] | – | – | – | IC50 [1, 4]: 5 nM; inhibition in vivo at 3 mg/kg ([2]; CSF, read-out: CSF A-beta reduction % at 3 mpk): 74%; inhibition in vivo at 3 mg/kg ([2]; brain, read-out: Brain A-beta reduction % at 3 mpk): 75%
NC1=N[C@@]2(CS1)c1cc(-c3cccnc3F)ccc1Oc1cnc(-c3ccnc(F)c3)cc12 [Example 1000, (S)-7-(2-fluoropyridin-3-yl)-3-(2-fluoropyridin-4-yl)-5′H-spiro[chromeno[2,3-c]pyridine-5,4′-thiazol]-2′-amine] | 23 | – | – | CSF A-beta reduction % at 30 mpk ([2]; CSF, Abeta 40, 30 mpk): 63% at 30 mpk; Brain A-beta reduction % at 30 mpk ([2]; brain, Abeta 40, 30 mpk): 60% at 30 mpk
CC(C)(CF)COc1cc(F)c2c(c1)[C@]1(CSC(N)=N1)c1cc(-c3cccnc3F)ccc1O2 [Example 1081, (4S)-4′-fluoro-2′-(3-fluoro-2,2-dimethylpropoxy)-7′-(2-fluoro-3-pyridinyl)spiro[1,3-thiazole-4,9′-xanthen]-2-amine] | 899 | 214 | – | –
C[C@H]1COCCN1c1cc(F)c2c(c1)[C@]1(CSC(N)=N1)c1cc(-c3cccnc3F)ccc1O2 [Example 1082, (4S)-4′-fluoro-7′-(2-fluoro-3-pyridinyl)-2′-((3S)-3-methyl-4-morpholinyl)spiro[1,3-thiazole-4,9′-xanthen]-2-amine] | 4 | 0.3 | – | –
NC1=N[C@@]2(CS1)c1cc(-c3cccnc3F)ccc1Oc1c(F)cc(N3C[C@H]4C[C@@H]3CO4)cc12 [Example 1085, (4S)-4′-fluoro-7′-(2-fluoro-3-pyridinyl)-2′-((1R,4R)-2-oxa-5-azabicyclo[2.2.1]hept-5-yl)spiro[1,3-thiazole-4,9′-xanthen]-2-amine] | 23 | 0.3 | – | –
COCC1SC(N)=N[C@@]12c1cc(-c3cccnc3F)ccc1Oc1cnc(Cl)cc12 (stereo partly drawn) [Example 1088, (5R)-3-chloro-7-(2-fluoro-3-pyridinyl)-5′-(methoxymethyl)spiro[chromeno[2,3-c]pyridine-5,4′-[1,3]thiazol]-2′-amine, (5S)-3-chloro-7-(2-fluoro-3-pyridinyl)-5′-(methoxymethyl)spiro[chromeno[2,3-c]pyridine-5,4′-[1,3]thiazol]-2′-amine] | – | 115 | – | IC50 [1]: 3060 nM
(4R)-4′-fluoro-2′-methoxy-7′-(5-pyrimidinyl)spiro[1,3-thiazole-4,9′-xanthen]-2-amine [Example 215] | – | 8.1 | 113 | –
(4S)-2′-(2-chloro-4-pyrimidinyl)-4′-fluoro-7′-(2-fluoro-3-pyridinyl)spiro[1,3-oxazole-4,9′-xanthen]-2-amine [Example 221] | – | 0.7 | 129 | –
(4S)-2′-(((1R)-2,2-difluorocyclopropyl)methoxy)-4′-fluoro-7′-(2-fluoro-3-pyridinyl)spiro[1,3-thiazole-4,9′-xanthen]-2-amine, (4S)-2′-(((1S)-2,2-difluorocyclopropyl)methoxy)-4′-fluoro-7′-(2-fluoro-3-pyridinyl)spiro[1,3-thiazole-4,9′-xanthen]-2-amine [Example 1080] | – | 0.5 | 47 | –
(4S)-4′-fluoro-7′-(2-fluoro-3-pyridinyl)-2′-((2R)-tetrahydro-2H-pyran-2-yl)spiro[1,3-oxazole-4,9′-xanthen]-2-amine [Example 220] | – | 1.6 | 12.8 | –
(4S)-4′-fluoro-7′-(2-fluoro-3-pyridinyl)-2′-((2S)-tetrahydro-2H-pyran-2-yl)spiro[1,3-oxazole-4,9′-xanthen]-2-amine [Example 219] | – | 0.9 | 6.2 | –
(4S)-4′-fluoro-7′-(2-fluoro-3-pyridinyl)-2′-((3R)-3-methyl-1-pyrrolidinyl)spiro[1,3-oxazole-4,9′-xanthen]-2-amine, (4S)-4′-fluoro-7′-(2-fluoro-3-pyridinyl)-2′-((3S)-3-methyl-1-pyrrolidinyl)spiro[1,3-oxazole-4,9′-xanthen]-2-amine [Example 1055] | – | 0.4 | 33 | –
(5R)-3-bromo-7-iodospiro[chromeno[2,3-b]pyridine-5,4′-[1,3]oxazol]-2′-amine, (5S)-3-bromo-7-iodospiro[chromeno[2,3-b]pyridine-5,4′-[1,3]oxazol]-2′-amine [Example 762] | – | 4 | 85 | –
(5R)-7-(2,4-difluoro-3-pyridinyl)-3-(2-fluoro-4-pyridinyl)spiro[chromeno[2,3-c]pyridine-5,4′-[1,3]thiazol]-2′-amine, (5S)-7-(2,4-difluoro-3-pyridinyl)-3-(2-fluoro-4-pyridinyl)spiro[chromeno[2,3-c]pyridine-5,4′-[1,3]thiazol]-2′-amine [Example 1019] | – | 0.7 | 33 | –
(5R)-7-bromo-3-fluoro-1-methoxyspiro[chromeno[2,3-c]pyridine-5,4′-[1,3]oxazol]-2′-amine, (5S)-7-bromo-3-fluoro-1-methoxyspiro[chromeno[2,3-c]pyridine-5,4′-[1,3]oxazol]-2′-amine [Example 846] | – | 1.4 | 14 | –
(6R)-4-((4S)-2-amino-4′-fluoro-7′-(2-fluoro-3-pyridinyl)spiro[1,3-oxazole-4,9′-xanthen]-2′-yl)-6-methyl-5,6-dihydro-2H-pyran-2-one, (6S)-4-((4S)-2-amino-4′-fluoro-7′-(2-fluoro-3-pyridinyl)spiro[1,3-oxazole-4,9′-xanthen]-2′-yl)-6-methyl-5,6-dihydro-2H-pyran-2-one [Example 803] | – | 0.8 | 15 | –

The next lines start with results.

IC50 [1, 5] [nM] | IC50 [3] [nM] | Compound | IC50 ([1]; average IC50) [nM] | also measured
1370 | 67 | Cc1ccc(-c2cc(F)c3c(c2)[C@]2(CSC(N)=N2)c2cc(-c4cccnc4F)ccc2O3)cn1 [Example 1086, (4S)-4′-fluoro-7′-(2-fluoro-3-pyridinyl)-2′-(6-methyl-3-pyridinyl)spiro[1,3-thiazole-4,9′-xanthen]-2-amine] | – | –
2 | 2 | NC1=N[C@@]2(CO1)c1cc(-c3cccnc3F)ccc1Oc1c(F)cc(N3CC4(COC4)C3)cc12 [Example 1087, (4S)-4′-fluoro-7′-(2-fluoro-3-pyridinyl)-2′-(2-oxa-6-azaspiro[3.3]hept-6-yl)spiro[1,3-oxazole-4,9′-xanthen]-2-amine] | – | –
– | 3.3 | COCC1SC(N)=NC12c1cc(-c3cccnc3F)ccc1Oc1c(F)cc(OC)cc12 [Example 1089, (4S/R,5S)-4′-fluoro-7′-(2-fluoropyridin-3-yl)-2′-methoxy-5-(methoxymethyl)-5H-spiro[thiazole-4,9′-xanthen]-2-amine] | 923 | –
> 10000 | 2400 | COCC1SC(N)=N[C@@]12c1cc(-c3cccnc3F)ccc1Oc1c(F)cc(OC)cc12 (stereo partly drawn) [Example 1090, (4R)-4′-fluoro-7′-(2-fluoro-3-pyridinyl)-2′-methoxy-5-(methoxymethyl)spiro[1,3-thiazole-4,9′-xanthen]-2-amine] | – | –
> 10000 | 5070 | COCC1SC(N)=N[C@]12c1cc(-c3cccnc3F)ccc1Oc1c(F)cc(OC)cc12 (stereo partly drawn) [Example 1091, (4S)-4′-fluoro-7′-(2-fluoro-3-pyridinyl)-2′-methoxy-5-(methoxymethyl)spiro[1,3-thiazole-4,9′-xanthen]-2-amine] | – | –
– | 5.7 | COC[C@H]1SC(N)=NC12c1cc(-c3cccnc3F)ccc1Oc1c(F)cc(OC)cc12 (stereo partly drawn) [Example 1092, (4S/R,5S)-4′-fluoro-7′-(2-fluoropyridin-3-yl)-2′-methoxy-5-(methoxymethyl)-5H-spiro[thiazole-4,9′-xanthen]-2-amine] | – | IC50 ([1]; average IC50, HEK cells): 498 nM
– | 4.3 | COCC1SC(N)=N[C@@]12c1cc(-c3cccnc3F)ccc1Oc1cnc(-c3ccnc(F)c3)cc12 (stereo partly drawn) [Example 1094, (5R)-7-(2-fluoro-3-pyridinyl)-3-(2-fluoro-4-pyridinyl)-5′-(methoxymethyl)spiro[chromeno[2,3-c]pyridine-5,4′-[1,3]thiazol]-2′-amine] | – | IC50 [1, 4]: 128 nM
3.6 | 2 | CC1(C#Cc2cnc3c(c2)[C@@]2(COC(N)=N2)c2cc(-c4cccnc4F)c(F)cc2O3)COC1 [compound 108] | – | –
